Residues, ends and D or L forms follow the SMILES beside them. *: point of attachment. Fmoc = O=C(OCC1c2ccccc2-c2ccccc21)*; Ahx = NCCCCCC(=O)O
Tests used:
IL-17A [1] = target: T1, IL-17A (Mus musculus, UniProt Q62386); assay: Lysosome inhibition assay (LPT, BafA1); format: cell-based; design: host or cells: added exogenously to RAW264.7, SR-A-KO RAW264.7, U-118 MG, DC 2.4 or HaCaT cells; conditions: RAW264.7, 0.5 μg/ml IL-17A + 50 μM 17A-Lytaca, 6 h
T1 sequence (Q62386 26-158): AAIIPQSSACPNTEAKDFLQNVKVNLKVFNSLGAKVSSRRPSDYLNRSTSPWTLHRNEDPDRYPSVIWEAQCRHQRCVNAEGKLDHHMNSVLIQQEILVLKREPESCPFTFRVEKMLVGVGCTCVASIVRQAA
Procedure: To confirm the involvement of lysosomes, RAW264.7 cells were pretreated with PBS, LPT (0.1 mg/ml), or BafA1 (100 nM) for 2 h at 37 °C. […] The accumulation of IL-17A in the cells was then measured via flow cytometry, following the aforementioned procedure.

[2] = In vivo localization and clearance assay of 17A-Lytaca (IVIS); design: species or system mouse; conditions: psoriasis mice, i.p. Cy-labeled 17A-Lytaca (Cy5-fm-17Abp 5 mg/kg, Cy7-fm-SRAL 7.3 mg/kg)
Procedure: Fluorescence imaging in both the Cy5 and Cy7 channels was conducted using the in vivo imaging system (IVIS Spectrum) at 4, 8, 12, 24, and 48 h post-injection. Further, for biodistribution assessment, mice were sacrificed at 6 h post-injection, and skins along with major organs (heart, liver, spleen, lung, and kidney) were removed for ex vivo fluorescence imaging.

[3] = Serum clearance kinetics of 17A-Lytaca relevant peptides; format: in vivo, mouse; conditions: healthy mice, i.p. Cy-labeled 17A-Lytaca (Cy5-fm-17Abp 15 mg/kg, Cy3-fm-SRAL 22 mg/kg), IVIS, n = 3
Procedure: Serum samples were collected at 0, 1, 2, 3, 4, 8, 12, and 24 h for analysis. The fluorescence intensity of serum was measured with the in vivo imaging system (IVIS) spectrum.

IL-17A [4] = target: T1, IL-17A; assay: IL-17A binding competition experiment with IL-17RA (IL-17A uptake); format: cell-based; design: host or cells: added exogenously to RAW264.7, SR-A-KO RAW264.7, U-118 MG, DC 2.4 or HaCaT cells; conditions: RAW264.7, with fi-SRAL and fi-17Abp mixture and IL-17A
Procedure: To verify the binding of the IL-17A by mixed fi-17Abp and fi-SRAL, RAW264.7 cells were treated with 0.5 μg/ml IL-17A, 50 μM mixed fi-SRAL and fi-17Abp and IL-17RA at 0, 0.0125, 0.025, 0.05, 0.1, or 0.2 μg/ml for 6 h. Then, flow cytometry analysis was used to measure the intracellular IL-17A level according to the procedure mentioned above.

With CO/C1=C\C(C)=C\[C@@H](C)[C@@H](O)[C@@H](C)C/C(C)=C/C=C/[C@H](OC)[C@@H]([C@@H](C)[C@@H](O)[C@H](C)[C@@]2(O)C[C@@H](O)[C@H](C)[C@@H](C(C)C)O2)OC1=O [BafA1, Bafilomycin A1] the “IL-17A accumulation in cells with lysosome inhibitor (in words)” value (IL-17A [1]) was “significantly higher IL-17A accumulation in cells”.

In the case of CC(=O)N[C@@H](CC(C)C)C(=O)N[C@@H](CC(C)C)C(=O)N[C@H](C=O)CCCNC(=N)N [LPT, Leupeptin], the “IL-17A accumulation in cells with lysosome inhibitor (in words)” value (IL-17A [1]) is reported as “significantly higher IL-17A accumulation in cells”.

In the case of C[C@H](NC(=O)[C@H](CCC(=O)O)NC(=O)[C@H](C)NC(=O)[C@H](CCC(=O)O)NC(=O)[C@H](C)NC(=O)[C@H](CCC(=O)O)NC(=O)[C@H](C)NC(=O)[C@H](CCC(=O)O)NC(=O)[C@H](C)NC(=O)[C@H](CCC(=O)O)NC(=O)[C@H](C)NC(=O)[C@H](CCC(=O)O)NC(=O)[C@H](C)NC(=O)[C@H](CCC(=O)O)NC(=O)[C@H](C)NC(=O)[C@H](CCC(=O)O)NC(=O)[C@H](C)NC(=O)[C@H](CCC(=O)O)NC(=O)[C@H](C)NC(=O)[C@H](CCC(=O)O)NC(=O)[C@H](C)NC(=O)[C@H](CCC(=O)O)NC(=O)[C@H](C)NC(=O)[C@H](CCC(=O)O)NC(=O)[C@H](C)NC(=O)[C@H](CCC(=O)O)NC(=O)[C@H](C)NC(=O)[C@H](CCC(=O)O)NC(=O)[C@H](C)NC(=O)[C@H](CCC(=O)O)NC(=O)CCCCCNC(=O)OCC1c2ccccc2-c2ccccc21)C(N)=O [fm-SRAL] ({Fmoc-Ahx}-EAEAEAEAEAEAEAEAEAEAEAEAEAEAEA-NH2), the “Time up to which the peptide remained detectable in vivo” value [2] is reported as 48 h and the “Time up to which the serum fluorescent signal was detectable” value [3] is reported as at most 8 h.

For “IL-17RA: IL-17A receptor protein used as competitor for the 17Abp binding domain of IL-17A”, the “Effect on intracellular IL-17A signal (in words)” value (IL-17A [4]) was “concentration-dependent attenuation”.
